Data as given in ChEMBL document CHEMBL2439949, “Synthesis and structure-activity relationships of phenyl-substituted coumarins with anti-tubercular activity that target FadD32” (Bioorg Med Chem Lett, 2013).
Values after ≈ are worked out from the molar mass of the structure shown. Active and inactive are the calls of the source. The rule behind the calls is not given here.

Tests used:
[1] = tested on: Mycobacterium tuberculosis; experiment: Antimycobacterial activity against Mycobacterium tuberculosis H37Rv after 7 days; format: functional; details: 168 h
HepG2 = experiment: Cytotoxicity against human HepG2 cells at 125 uM after 48 hrs; format: cell-based; details: hepg2, 48 h
[2] = Solubility in water; format: physicochemical
[3] = Plasma protein binding in human at 1 uM after 5 hrs; format: ADME, cell-free; details: read-out: PPB (converted)
[4] = Metabolic stability of the compound in human plasma assessed as compound remaining at 1 uM after 5 hrs; format: ADME, cell-free; details: read-out: Stability
[5] = Cytotoxicity against human HepG2 cells after 48 hrs; format: cell-based; details: read-out: LD50
[6] = tested on: Mycobacterium tuberculosis; experiment: Antimycobacterial activity against Mycobacterium tuberculosis H37Rv at 250 uM after 7 days; format: functional
[7] = tested on: Mycobacterium tuberculosis; experiment: Antimycobacterial activity against Mycobacterium tuberculosis H37Rv at 64 uM after 7 days; format: functional, organism-based
[8] = tested on: Mycobacterium tuberculosis; experiment: Antimycobacterial activity against Mycobacterium tuberculosis H37Rv at 62 uM after 7 days; format: functional, organism-based
[9] = AUC (0 to infinity) in Balb/c mouse at 10 mg/kg, po; format: ADME, organism-based; set-up: time infinity, dose 10 mg/kg, route oral; details: plasma
[10] = AUClast in Balb/c mouse at 10 mg/kg, po; format: ADME, organism-based; set-up: time 0 - last, dose 10 mg/kg, route oral; details: plasma
[11] = Oral bioavailability in Balb/c mouse at 10 mg/kg; format: ADME, organism-based; details: in vivo
[12] = Permeability of the compound from apical to basolateral side of human Caco2 cells at 10 uM; format: ADME, cell-based; details: Caco-2, read-out: permeability
[13] = MRTlast in Balb/c mouse at 10 mg/kg, po; format: ADME, organism-based; set-up: dose 10 mg/kg, route oral; details: in vivo
[14] = Intrinsic clearance in Balb/c mouse liver microsomes at 100 uM; format: ADME, Microsome; details: read-out: CLH
Mus musculus [15] = experiment: Volume of distribution in Balb/c mouse at 10 mg/kg, po; format: ADME, organism-based; set-up: dose 10 mg/kg, route oral; details: in vivo
[16] = Half life in Balb/c mouse liver microsomes at 100 uM; format: ADME, Microsome
[17] = Tmax in Balb/c mouse at 10 mg/kg, po; format: ADME, organism-based; set-up: dose 10 mg/kg, route oral; details: in vivo
[18] = Half life in Balb/c mouse at 10 mg/kg, po; format: ADME, organism-based; set-up: dose 10 mg/kg, route oral; details: in vivo
[19] = AUClast in Balb/c mouse at 1 mg/kg, iv; format: ADME, organism-based; set-up: time 0 - last, dose 1 mg/kg, route intravenous; details: plasma
[20] = Clearance in Balb/c mouse at 10 mg/kg, po; format: ADME, organism-based; set-up: dose 10 mg/kg, route oral; details: in vivo
[21] = AUC (0 to infinity) in Balb/c mouse at 1 mg/kg, iv; format: ADME, organism-based; set-up: time infinity, dose 1 mg/kg, route intravenous; details: plasma
[22] = Metabolic stability of the compound in Balb/c mouse plasma assessed as compound remaining at 1 uM after 8 hrs; format: ADME, cell-free; details: read-out: Stability
[23] = MRTlast in Balb/c mouse at 1 mg/kg, iv; format: ADME, organism-based; set-up: dose 1 mg/kg, route intravenous; details: in vivo
[24] = Permeability of the compound from basolateral to apical side of human Caco2 cells at 10 uM; format: ADME, cell-based; details: Caco-2, read-out: permeability
[25] = Clearance in Balb/c mouse at 1 mg/kg, iv; format: ADME, organism-based; set-up: dose 1 mg/kg, route intravenous; details: in vivo
[26] = Half life in Balb/c mouse at 1 mg/kg, iv; format: ADME, organism-based; set-up: dose 1 mg/kg, route intravenous; details: in vivo
[27] = Initial plasma concentration in Balb/c mouse at 1 mg/kg, iv; format: ADME, organism-based; set-up: dose 1 mg/kg, route intravenous
Mus musculus [28] = experiment: Initial plasma concentration in Balb/c mouse at 10 mg/kg, po; format: ADME, organism-based; set-up: dose 10 mg/kg, route oral; details: in vivo
[29] = Volume of distribution in Balb/c mouse at 1 mg/kg, iv; format: ADME, organism-based; set-up: dose 1 mg/kg, route intravenous; details: in vivo
[30] = Tmax in Balb/c mouse at 1 mg/kg, iv; format: ADME, organism-based; set-up: dose 1 mg/kg, route intravenous; details: in vivo

CCOC(=O)Nc1cccc(-c2cc(=O)oc3cc(C)c(-c4ccc(CN5CCOCC5)cc4)c(C)c23)c1
IC90 [1]: 39 µM

Cc1cc2oc(=O)cc(-c3ccccc3)c2c(C)c1-c1ccc(CN2CCCCC2)cc1
IC90 [1]: 19 µM | Activity (HepG2): Non-toxic

Cc1cc2oc(=O)cc(-c3ccccc3)c2c(C)c1-c1ccc(C(F)(F)F)cc1
IC90 [1]: 29 µM

COC(=O)c1cccc(-c2cc(=O)oc3cc(C)c(-c4ccc(CN5CCOCC5)cc4)c(C)c23)c1
IC90 [1]: 59 µM

O=c1cc(-c2ccccc2)c2cc(-c3ccc(CO)cc3)ccc2o1
IC90 [1]: 115 µM

Cc1cc2oc(=O)cc(-c3ccccc3)c2c(C)c1-c1cccnc1
IC90 [1]: 69 µM

Cc1cc2oc(=O)cc(-c3ccccc3)c2c(C)c1-c1ccc(C(C)O)cc1 (stereo not drawn)
IC90 [1]: 4 µM | Activity (HepG2): Non-toxic

Cc1cc2oc(=O)cc(-c3ccccc3)c2c(C)c1-c1cccc(F)c1
IC90 [1]: 21 µM

COc1cccc(-c2c(C)cc3oc(=O)cc(-c4ccccc4)c3c2C)c1
IC90 [1]: 31 µM

Cc1cc2oc(=O)cc(-c3ccccc3)c2c(C)c1-c1ccc(CN2CCOCC2)cc1
solubility [2]: 36.1 µM (≈ 15.4 µg/mL) | IC90 [1]: 0.5 µM | fraction unbound at 5 h, 1 µM [3]: 0.014 | Activity (HepG2): Non-toxic | remaining at 5 h, 1 µM [4]: 84.4%

Cc1cc2oc(=O)cc(-c3ccccc3)c2c(C)c1-c1ccc(CO)cc1
solubility [2]: 0.2 µM (≈ 0.0713 µg/mL) | IC90 [1]: 7 µM | fraction unbound at 5 h, 1 µM [3]: 0.006 | Activity (HepG2): Non-toxic | remaining at 5 h, 1 µM [4]: 80.3%

Cc1cc2oc(=O)cc(-c3ccccc3)c2c(C)c1-c1ccc(CN2CCN(C)CC2)cc1
IC90 [1]: 5.89 µM | Activity (HepG2): Non-toxic

CC(=O)Nc1cccc(-c2cc(=O)oc3cc(C)c(-c4ccc(CN5CCOCC5)cc4)c(C)c23)c1
IC90 [1]: 12 µM | Activity (HepG2): Non-toxic

Cc1cc2oc(=O)cc(-c3ccccc3)c2c(C)c1-c1ccc(CNC2CCCCC2)cc1
IC90 [1]: 5 µM | CC50 at 48 h [5]: 32 µM | Activity (HepG2): Non-toxic

Cc1ccc(-c2ccc3oc(=O)cc(-c4ccccc4)c3c2)cc1
inhibition at 250 µM ([6]; 168 h): 24%

Cc1cc2oc(=O)cc(-c3ccccc3)c2c(C)c1-c1ccccc1Cl
IC90 [1]: 22 µM | Activity (HepG2): Non-toxic

Cc1cc2oc(=O)cc(-c3ccccc3)c2c(C)c1-c1cccc(C(F)(F)F)c1
Activity [7]: inactive

Cc1cc2oc(=O)cc(-c3cccc(N)c3)c2c(C)c1-c1ccc(CN2CCOCC2)cc1
solubility [2]: 89.3 µM (≈ 39.3 µg/mL) | IC90 [1]: 0.4 µM | fraction unbound at 5 h, 1 µM [3]: 0.013 | remaining at 5 h, 1 µM [4]: 88%

CCCCCCNCc1ccc(-c2c(C)cc3oc(=O)cc(-c4ccccc4)c3c2C)cc1
IC90 [1]: 4 µM

Cc1cc2oc(=O)cc(-c3ccccc3)c2c(C)c1-c1ccc(F)cc1
IC90 [1]: 26 µM

C=Cc1ccc(-c2c(C)cc3oc(=O)cc(-c4ccccc4)c3c2C)cc1
IC90 [1]: 184 µM

Cc1ccc(-c2c(C)cc3oc(=O)cc(-c4ccccc4)c3c2C)cc1
IC90 [1]: 36 µM

Cc1cc2oc(=O)cc(-c3cccnc3)c2c(C)c1-c1ccc(CN2CCOCC2)cc1
IC90 [1]: 1 µM | Activity (HepG2): Non-toxic

Cc1cc(C)c2c(-c3ccccc3)cc(=O)oc2c1
IC90 [1]: 1100 µM

Cc1cc2oc(=O)cc(-c3ccccc3)c2cc1-c1ccc(CO)cc1
IC90 [1]: 68 µM

COc1ccc(C2=CC(=O)Cc3cc(C)c(-c4ccc(CN5CCOCC5)cc4)c(C)c32)cc1
Activity [8]: inactive

CNC(=O)c1ccc(-c2c(C)cc3oc(=O)cc(-c4ccccc4)c3c2C)cc1
IC90 [1]: 7 µM | Activity (HepG2): Non-toxic

Cc1cc2oc(=O)cc(-c3ccccc3)c2c(C)c1-c1cccc(Cl)c1
IC90 [1]: 260 µM

Cc1cc2oc(=O)cc(-c3cccc(NS(C)(=O)=O)c3)c2c(C)c1-c1ccc(CN2CCOCC2)cc1
IC90 [1]: 59 µM

Cc1cc(-c2ccc3oc(=O)cc(-c4ccccc4)c3c2)c(C)cc1CO
IC90 [1]: 170 µM

Cc1cc2oc(=O)cc(-c3ccccc3)c2c(C)c1-c1ccc(C#N)cc1
IC90 [1]: 295 µM

Cc1cc2oc(=O)cc(-c3ccccc3)c2c(C)c1-c1ccncc1
solubility [2]: 3.2 µM (≈ 1.05 µg/mL) | IC90 [1]: 2 µM | fraction unbound at 5 h, 1 µM [3]: 0.012 | Activity (HepG2): Non-toxic | remaining at 5 h, 1 µM [4]: 83.5%

Cc1cc2oc(=O)cc(-c3ccccc3)c2c(C)c1-c1ccc(C)c2ccccc12
Activity [7]: inactive

Cc1cc2oc(=O)cc(-c3ccccc3)c2c(C)c1-c1ccc(Cl)cc1
IC90 [1]: 54 µM

Cc1cc2oc(=O)cc(-c3ccccc3)c2c(C)c1-c1cncnc1
IC90 [1]: 8 µM

COc1ccccc1-c1c(C)cc2oc(=O)cc(-c3ccccc3)c2c1C
Activity [7]: inactive

Cc1ccc(/C=C/c2c(C)cc3oc(=O)cc(-c4ccccc4)c3c2C)cc1
IC90 [1]: 61 µM

Cc1cc2oc(=O)cc(-c3ccc(N)cc3)c2c(C)c1-c1ccc(CN2CCOCC2)cc1
IC90 [1]: 14 µM

Cc1ccc(-c2c(C)cc3oc(=O)cc(C)c3c2C)cc1
inhibition [6]: inactive

Cc1cc2oc(=O)cc(-c3ccccc3)c2c(C)c1Br
Activity [7]: inactive

Cc1c(-c2ccc(CO)cc2)ccc2oc(=O)cc(-c3ccccc3)c12
IC90 [1]: 70 µM

Cc1cc(CO)ccc1-c1c(C)cc2oc(=O)cc(-c3ccccc3)c2c1C
IC90 [1]: 22 µM | Activity (HepG2): Non-toxic

Cc1cc2oc(=O)cc(-c3cccc([N+](=O)[O-])c3)c2c(C)c1-c1ccc(CN2CCOCC2)cc1
IC90 [1]: 6 µM | Activity (HepG2): Non-toxic

CC(=O)c1ccc(-c2c(C)cc3oc(=O)cc(-c4ccccc4)c3c2C)cc1
IC90 [1]: 220 µM

Cc1cc2oc(=O)cc(-c3cccc(N)c3)c2c(C)c1-c1ccc(CN2CCOCC2)cc1.Cl.Cl
AUC(0-inf) [9]: 3190 ng·h/mL | AUC(0-t) [10]: 3180 ng·h/mL | bioavailability [11]: 62% | Papp A→B at 10 µM [12]: 34.5 ×10⁻⁶ cm/s | MRT last [13]: 4.31 h | CLint scaled at 100 µM [14]: 80.3 mL/min/kg | Vd (Mus musculus [15]): 12.25 L/kg | half-life at 100 µM [16]: 8.63 h | Tmax [17]: 2 h | half-life [18]: 2.71 h | AUC(0-t) [19]: 513 ng·h/mL | CL/F [20]: 52.3 mL/min/kg | AUC(0-inf) [21]: 536 ng·h/mL | remaining at 8 h, 1 µM [22]: 112% | MRT last [23]: 1.36 h | Papp B→A at 10 µM [24]: 76.9 ×10⁻⁶ cm/s | clearance [25]: 31.1 mL/min/kg | half-life [26]: 1.45 h | C0 [27]: 851 ng/mL | C0 (Mus musculus [28]): 642.06 ng/mL | Vd [29]: 3.91 L/kg | Tmax [30]: 4.98 min

Cc1cc(-c2c(C)cc3oc(=O)cc(-c4ccccc4)c3c2C)ccn1
IC90 [1]: 36 µM
